Laboratory results taken from patent US20170121295A1, “POLYCYCLIC LPA1 ANTAGONIST AND USES THEREOF” (AMIRA PHARMACEUTICALS, INC., priority 2010, published 2017).
Where two headings read alike, the source gives them in different places.

Tests used:
[1] = test system: human A2058 melanoma cells; test: LPA1 Chemotaxis Assay; format: cell-based; conditions: 100 nM LPA, read-out: IC50, LPA-driven chemotaxis
Procedure: Chemotaxis of the A2058 human melanoma cells was measured using the Neuroprobe ChemoTx® System plates (8 μm pore size, 5.7 mm diameter sites). The filter sites were coated with 0.001% fibronectin (Sigma) in 20 mM Hepes, pH 7.4 and allowed to dry. A2058 cells were serum-starved for 24 hours, then harvested with Cell Stripper and resuspended in DMEM containing 0.1% fatty-acid-free bovine serum albumin (BSA) to a concentration of 1×10^6/ml. Cells were mixed with an equal volume of test compound (2×) in DMEM containing 0.1% fatty-acid-free BSA and incubated at 37° C. for 15 minutes. LPA (100 nM in DMEM containing 0.1% fatty-acid-free BSA) or vehicle was added to each well of the lower chamber and 50 μl of the cell suspension/test compound mix was applied to the upper portion of the ChemoTx plate. Plates were incubated at 37° C. for three hours and then the cells removed from the upper portion by rinsing with PBS and scraping. The filter was dried then stained with HEMA 3 Staining System (Fisher Scientific). The absorbance of the filter was read at 590 nm and IC50s were determined using Symyx Assay Explorer.

Human LPA3 = target: T1, Human LPA3 (Homo sapiens, UniProt Q9UBY5); test: LPA3 Calcium Flux Assay; format: cell-based; conditions: human LPA3 expressing CHO cells, 10 nM LPA; read-out: Ca Flux IC50 LPA3
T1 construct: The full-length cDNA fragment for human LPA3 was obtained by PCR from the vector
T1 sequence (Q9UBY5 1-353): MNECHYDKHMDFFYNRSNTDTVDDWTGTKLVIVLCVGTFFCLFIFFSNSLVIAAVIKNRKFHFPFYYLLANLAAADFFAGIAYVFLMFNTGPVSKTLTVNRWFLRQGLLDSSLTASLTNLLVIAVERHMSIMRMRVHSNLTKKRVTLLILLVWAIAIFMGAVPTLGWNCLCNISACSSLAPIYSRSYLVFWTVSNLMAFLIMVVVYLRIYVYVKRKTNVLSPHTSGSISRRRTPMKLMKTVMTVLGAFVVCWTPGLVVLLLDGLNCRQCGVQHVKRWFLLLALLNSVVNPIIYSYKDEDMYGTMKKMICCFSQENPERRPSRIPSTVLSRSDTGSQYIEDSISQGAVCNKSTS
Procedure: A vector containing the human LPA3 receptor cDNA was obtained from the Missouri S&T cDNA Resource Center (www.cdna.org). The full-length cDNA fragment for human LPA3 was obtained by PCR from the vector. The nucleotide sequence of the cloned human LPA3 was determined by sequencing and confirmed to be identical to the published human LPA3 sequence (NCBI accession number NM_012152). The cDNA was cloned into the pCDNA5/FRT expression plasmid and transfected in CHO cells using lipofectamine 2000 (Invitrogen Corp., USA). Clones stably expressing human LPA3 were selected using hygromycin and identified as cells that show Ca-influx in response to LPA.
(§1) Human LPA1 or LPA3 expressing CHO cells are seeded at 20,000-45,000 cells per well in a 96-well poly-D-lysine coated plate one or two days before the assay. Prior to the assay, the cells are washed once with PBS and then cultured in serum-free media overnight. On the day of the assay, a calcium indicator dye (Calcium 4, Molecular Devices) in assay buffer (HBSS with Ca^2+ and Mg^2+ and containing 20 mM Hepes and 0.3% fatty-acid free human serum albumin) is added to each well and incubation continued for 1 hour at 37° C. 10 μl of test compound in 2.5% DMSO are added to the cells and incubation continued at room temperature for 30 minutes. Cells are the stimulated by the addition of 10 nM LPA and intracellular Ca^2+ measured using the Flexstation 3 (Molecular Devices). IC50s are determined using Graphpad prism analysis of drug titration curves.

Human LPA1 = target: T2, Human LPA1 (Homo sapiens, UniProt Q92633); test: LPA1 Calcium Flux Assay; format: cell-based; conditions: human LPA1 expressing CHO cells, 10 nM LPA; read-out: Ca Flux IC50 LPA1
T2 construct: the full-length cDNA for human LPA1 was obtained by PCR of the reverse transcription reaction; expressed in transfected cells
T2 sequence (Q92633 whole entry): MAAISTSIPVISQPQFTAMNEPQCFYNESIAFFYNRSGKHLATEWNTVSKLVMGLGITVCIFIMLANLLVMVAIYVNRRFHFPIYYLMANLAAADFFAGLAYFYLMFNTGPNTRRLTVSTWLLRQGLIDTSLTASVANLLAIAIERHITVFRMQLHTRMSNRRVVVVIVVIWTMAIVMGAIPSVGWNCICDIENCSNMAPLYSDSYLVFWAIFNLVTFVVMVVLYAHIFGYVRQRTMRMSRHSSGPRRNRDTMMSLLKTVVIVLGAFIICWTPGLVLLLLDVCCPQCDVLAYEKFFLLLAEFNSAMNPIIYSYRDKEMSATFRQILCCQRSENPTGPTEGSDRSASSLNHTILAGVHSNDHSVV
Procedure: A 1.1 kb cDNA encoding the human LPA1 receptor was cloned from human lung. Human lung RNA (Clontech Laboratories, Inc. USA) was reverse transcribed using the RETROscript kit (Ambion, Inc.) and the full-length cDNA for human LPA1 was obtained by PCR of the reverse transcription reaction. The nucleotide sequence of the cloned human LPA1 was determined by sequencing and confirmed to be identical to the published human LPA1 sequence (An et al. Biochem. Biophys. Res. Commun. 231:619 (1997). The cDNA was cloned into the pCDNA5/FRT expression plasmid and transfected in CHO cells using lipofectamine 2000 (Invitrogen Corp., USA). Clones stably expressing human LPA1 were selected using hygromycin and identified as cells that show Ca-influx in response to LPA.
as §1

[2] = Pharmacokinetics in Sprague-Dawley Rats; format: in vivo; conditions: for mean dose adjusted exposure (AUC0-24/D) / Cmax / bioavailability / AUC(0-t): PO 1 mg/kg; for mean dose adjusted exposure (AUC0-24/D) / dose adjusted AUC value (AUC0-24/D) / Cmax / bioavailability: fasted; for Cmax / bioavailability / AUC(0-t): Sprague-Dawley, rat, plasma; for Cmax: read-out: maximal plasma concentration (Cmax); for bioavailability: read-out: apparent bioavailability; for AUC(0-t): fed, read-out: exposure (AUC0-24)
Procedure: The pharmacokinetics of Compound 1 and Compound 2 was assessed in male and female Sprague-Dawley rats (225-300 g at 10 weeks).
Compound 2 (1 mg/kg) was administered intravenously (IV) to fasted rats (n=3) as a solution in purified water via a bolus injection into the jugular vein (1 mg/mL; 1 mL/kg). Compound 1 (10 mg/kg) was administered orally (PO), to fasted (for at least 12 hours) or non-fasted rats (n=2 or 3) as a solution in 0.5% methylcellulose unless otherwise noted via an oral gavage to the stomach (3.33 mg/mL; 3 mL/kg). Non-fasted animals were fasted for at least 12 hours and then were given food ad libitum for 1 hour prior to dosing. Fasted animals were dosed 1, 10, 30, 100 or 300 mg/kg Compound 1 as a solution in 0.5% methylcellulose via an oral gavage to the stomach (0.69 mg/mL, 10 mg/mL, 33.3 mg/mL or 100 mg/mL) (n=2 or 3 per dose group). In a gastrointestinal study, rats were anesthetized and Compound 1 was administered directly to the duodenum, jcjunum or ilcum at 1 mg/kg in 0.5% methylcellulose.
Capsules were also administered with Compound 2. Capsules were size 9 gelatin (Torpac, San Diego, Calif.).
Blood samples (approximately 300 μL total blood) were taken from each rat via the jugular vein cannula at pre-dose, and an initial time of 5 or 15 min and then various time points up to 24 hours post-dose (10-11 samples per animal). Samples were collected on wet ice in tubes containing potassium EDTA. After each blood draw, the cannula was flushed with an equivalent volume of heparinized saline (0.1 mL at 40 units/mL). Plasma samples, prepared by centrifugation of whole blood, were stored frozen (−80° C.) prior to analysis.

IC50 [1]: < 100 nM
IC50 (Human LPA3): > 1000 nM
IC50 (Human LPA1): < 200 nM
mean dose adjusted exposure (AUC0-24/D) ([2]; females): 1.9 µg·h/mL
mean dose adjusted exposure (AUC0-24/D) ([2]; males): 2.1 µg·h/mL
dose adjusted AUC value (AUC0-24/D) ([2]; PO 10 mg/kg, female rats): 2.7 µg·h/mL
dose adjusted AUC value (AUC0-24/D) ([2]; PO 10 mg/kg, male rats): 2.4 µg·h/mL
dose proportionality of exposure ([2]; PO 30, 100 and 300 mg/kg): greater than dose proportional
dose proportionality of exposure ([2]; PO doses of 1 and 10 mg/kg, suspension): dose proportional
Cmax ([2]; female rats): 300 ng/mL
bioavailability ([2]; female): 58%
Cmax ([2]; male rats): 400 ng/mL
bioavailability ([2]; male): 63%
AUC(0-t) ([2]; female rats): 1400 ng·h/mL
AUC(0-t) ([2]; male rats): 1600 ng·h/mL
dose normalized exposure ([2]; oral, 10 mg/kg): 5.1 µg·h/mL
Structure (SMILES): Cc1noc(-c2ccc(-c3ccc(C4(C(=O)O)CC4)cc3)cc2)c1NC(=O)O[C@H](C)c1ccccc1 [Compound 1, 1-{4′-[3-methyl-4-((R)-1-phenyl-ethoxycarbonylamino)-isoxazol-5-yl]-biphenyl-4-yl}-cyclopropanecarboxylic acid]
exposure in fed vs. fasted animals ([2]; PO 10 mg/kg): slightly lower exposure in fed animals vs. fasted
regional absorption ([2]; administered directly to duodenum, jejunum or ileum at 1 mg/kg): good oral bioavailability along the entire gastrointestinal tract
